Tests used:
Type in all cases: cell-based, ICR mice
[1] = system: inner hair cells (IHCs) and outer hair cells (OHCs) of the organ of Corti; assay: Phalloidin staining of stereocilia / hair cell morphology in organotypic cochlear explants; settings: for hair cell morphology / damage after antibiotic treatment / relative severity of damage, OHC versus IHC: cochlear explants, no BC; for hair cell morphology / damage after antibiotic treatment: 1.2 mM KM, 3 mM AK or 100 μM GM; for relative severity of damage, OHC versus IHC: 1.2 mM KM or 100 μM GM
Protocol: (§1) Three-day-old ICR (Institute for Cancer Research) mice were purchased from Hyochang Science (Daegu, South Korea) for […]. Dissected cochleae were cultured in high-glucose Dulbecco's Modified Eagle's Medium (DMEM; Hyclone, Logan, UT, USA) containing 10% fetal bovine serum (Hyclone) and ampicillin (10 μg/mL; Life Technologies, Carlsbad, CA, USA) at 37° C. in a humidified atmosphere in the presence of 5% CO2. After 16 hours of culture, cochleae were first treated with 0.1 μM or 1 μM BC for 1 hour, followed by addition of one of three aminoglycoside antibiotics (1.2 mM KM, 3 mM AK, or 100 μM GM) to the culture medium. BC concentrations were optimized for each aminoglycoside (0.1 μM for KM, 1 μM for AK and GM).
(§2) To evaluate the morphology of inner hair cells (IHCs) and outer hair cells (OHCs) of the organ of Corti, the specimens were cultured for 48 hours and fixed with 4% paraformaldehyde (PFA, pH 7.4) in PBS for 15 minutes. After washing three times with PBS, a stereociliary bundle of explants was stained with Alexa Fluor 488-or 555-conjugated phalloidin (1:1,000; Invitrogen-Molecular Probes, Eugene, OR) in PBS for 1 hour at room temperature (RT). Specimens were mounted on glass slides using Fluoromount (Sigma-Aldrich, St. Louis, MO) and visualized using an Axio Imager A2 fluorescence microscope (Carl Zeiss, Oberkochen, Germany).

[2] = system: IHCs and OHCs (cochlear hair cells); assay: Quantification of surviving hair cells with V-shaped stereocilia in cochlear explants; settings: for IHC survival / cytotoxicity to IHC: 3 mM AK, 1.2 mM KM, 100 μM GM, no BC
Protocol: as §1, §2
[Example 5] Quantification of hair cells and statistical analysis For quantitative analysis of hair cell damage, IHCs and OHCs with intact v-shaped […] were individually counted along a 200 μm length of basilar membrane in the apical (30%), middle (50%), and basal (70%) regions of each cochlear probe. All experiments were performed independently at least three times.

[3] = system: cleaved caspase-3 in organ of Corti; assay: Immunohistochemistry for cleaved (active) caspase-3 in cochlear explants; settings: for level of cleaved caspase-3 after antibiotic treatment: KM, AK, or GM versus untreated controls, no BC
Protocol: as §1
Immunohistochemistry and TUNEL assay for active caspase-3 were used to determine whether cell death in the organ of Corti occurred by apoptosis. Specimens were fixed with 4% PFA, kept permeabilized with 0.1% Triton X-100 in PBS (PBS-Tx) for 30 minutes at room temperature (RT), blocked with 5% normal goat serum for 1 hour at room temperature (RT), and cultured overnight with anti-caspase-3 antibody (1:1,000; Cell Signaling Technology, Bevery, MA) diluted in blocking solution.

[4] = system: cells of the organ of Corti; assay: TUNEL assay of apoptotic DNA fragmentation in cochlear explants; settings: for apoptotic DNA fragmentation / cell death induced by antibiotic: KM, AK, or GM in mouse cochlea, no BC
Protocol: as §1
To detect DNA fragmentation leading to cell death, a TUNEL assay kit (Promega, Madison, WI) was used according to the manufacturer's protocol. Specimens were fixed with 4% paraformaldehyde in PBS for 15 minutes at room temperature (RT) and treated with 0.1% PBS-Tx in 0.1% sodium citrate for 30 minutes at 37° C. Fragmented DNA from cells was stained using TUNEL working solution at 37° C. for 30 minutes. F-actin was labeled with Alexa Fluor 555-conjugated phalloidin in PBS-Tx for 3 hours at room temperature (RT) in the dark and visualized using a Zeiss Axio Imager A2 fluorescence microscope.

[5] = system: mitochondrial membrane potential of cochlear hair cells; assay: JC-1 assay of mitochondrial membrane potential in cochlear explants; settings: for red/green fluorescence ratio (mitochondrial membrane potential) after antibiotic treatment: KM, AK, or GM only
Protocol: as §1
The cationic fluorescent dye MitoProbe™ JC-1 (Invitrogen-Molecular Probes) was used to measure the mitochondrial membrane potential. After 30 hours of culture, the specimens were washed with PBS and stained with JC-1 (2 μM) for 2 hours at 37° C. in the presence of 5% CO2 in a darkroom. The sensitivity of the JC-1 assay was verified by adding 50 μM carbonyl [COMPOUND LEFT OUT] 3-chlorophenylhydrazone (CCCP) to untreated specimens before JC-1 staining, and then the specimens were cultured at 37° C. in the presence of 5% CO2 for 5 minutes for activation of CCCP. JC-1 fluorescence was split into red and green, and then the segmented images were converted to grayscale, followed by evaluation using ImageJ software (http://imageJ.nih.gov/ij/).

[6] = system: mitochondrial reactive oxygen species (ROS) in cochlear hair cells; assay: MitoSOX Red assay of mitochondrial ROS in cochlear explants
Protocol: as §1
To analyze AK or KM-induced mitochondrial oxidative stress, cochlear explants were examined by MitoSOX Red assay and JC-1 assay. Levels of mitochondrial reactive oxygen species (ROS) were detected by staining with 5 μM MitoSOX Red (Invitrogen-Molecular Probes) for 5 minutes in a humidified atmosphere at 37° C. in the presence of 5% CO2. The specimen was washed with PBS and visualized using a Zeiss Axio Imager A2 fluorescence microscope.

reduction of cleaved caspase-3 ([3]; BC pre-treatment before antibiotics (KM, AK, GM))	Compound	hair cell morphology / damage after antibiotic treatment [1]	IHC survival / cytotoxicity to IHC [2]	level of cleaved caspase-3 after antibiotic treatment [3]	apoptotic DNA fragmentation / cell death induced by antibiotic [4]	red/green fluorescence ratio (mitochondrial membrane potential) after antibiotic treatment ([5]; JC-1)	protection against stereocilia degeneration and hair cell loss ([1]; 0.1 or 1 μM BC for 1 hour before antibiotic (KM, AK, or GM), apical, middle, basal regions)	reduction of antibiotic-induced hair cell damage (surviving hair cells) ([2]; BC pretreatment (0.1 μM for KM, 1 μM for AK and GM), IHC and OHC, apical, middle and basal turns)	cytotoxicity of BC to IHC and OHC ([2]; BC, cochlear explants)	reduction of apoptotic DNA fragmentation (TUNEL labeling) ([4]; BC pretreatment compared with KM, AK, or GM treatment)	decrease of MitoSOX Red fluorescence intensity (mitochondrial ROS) ([6]; BC pretreatment, then KM, AK or GM)	statistical significance of reduced integrated density of red fluorescence ([6]; BC treatment group versus AK, KM, and GM groups)	red/green fluorescence ratio (mitochondrial membrane potential) with BC ([5]; BC pretreatment, then KM, AK or GM, JC-1, n=3 per group, *P<0.05 and **P<0.01)	statistical significance of protective effect on mitochondrial membrane potential ([5]; BC pretreatment, then KM, AK or GM, n=3 per group, *P<0.05 and **P<0.01)	relative severity of damage, OHC versus IHC [1]
	NCC[C@H](O)C(=O)N[C@@H]1C[C@H](N)[C@@H](O[C@H]2O[C@H](CN)[C@@H](O)[C@H](O)[C@H]2O)[C@H](O)[C@H]1O[C@H]1O[C@H](CO)[C@@H](O)[C@H](N)[C@H]1O [AK, amikacin]	most of their cilia disintegrated and lost, making them unrecognizable	virtually destroyed	significantly increased levels of cleaved caspase-3 compared to untreated controls	resulted in cell death	significant decrease in the red/green ratio along with a loss of red signal									
reduced cleaved caspase-3	COc1ccc2cc3[n+](cc2c1OC)CCc1cc2c(cc1-3)OCO2 [BC, berberine chloride]						alleviated stereocilia degeneration and hair cell loss in all cochlear regions	antibiotic-induced damage was reduced to near-normal levels	no detrimental effects on IHC or OHC	significant reduction by BC pretreatment to near control levels	significant decrease in fluorescence intensity	statistically significant compared to the AK, KM, and GM groups	red/green fluorescence ratio was found to increase	statistically significant	
	NC[C@H]1O[C@H](O[C@H]2[C@H](O)[C@@H](O[C@H]3O[C@H](CO)[C@@H](O)[C@H](N)[C@H]3O)[C@H](N)C[C@@H]2N)[C@H](O)[C@@H](O)[C@@H]1O [KM, kanamycin]	not only altered the ciliary morphology of hair cells but also disrupted cell arrangement, with induction of cell loss in a complex manner	more resistant	significantly increased levels of cleaved caspase-3 compared to untreated controls	resulted in cell death	significant decrease in the red/green ratio along with a loss of red signal									more severe in OHC than in IHC
	gentamicin [GM]		more resistant	significantly increased levels of cleaved caspase-3 compared to untreated controls	resulted in cell death	significant decrease in the red/green ratio along with a loss of red signal									caused more severe damage to OHCs than IHCs, with loss of hair cells

Source: patent US20260294880A1, “COMPOSITION FOR TREATING OTOTOXIC HEARING LOSS CAUSED BY AMINOGLYCOSIDE ANTIBIOTICS” (KYUNGPOOK NATIONAL UNIVERSITY INDUSTRY-ACADEMIC COOPERATION …, priority 2023, published 2026)
